Test results: patent US6756371B1, “Phthalazinone derivatives as PDE4 inhibitors” (Altana Pharma AG, priority 1999, dated 2004)

Experiments:
[1] = test system: PDE4; assay: Inhibition of PDE4 activity (method of Bauer and Schwabe, adapted to microtitre plates); format: biochemical
Method: Inhibition f PDE 4 Activity
The activity test was carried out according to the method of Bauer and Schwabe, which was adapted to microtitre plates (Naunyn-Schmiederberg's Arch. Pharmacol. 311, 193-198. 1980). In this test, the PDE reaction is carried out in the first step. In a second step, the resultant 5′-nucleotide is cleaved to the uncharged nucleoside by a snake venom 5′-nucleotidase from Crotalus Atrox. In the third step, the nucleoside is separated from the remaining charged substrate on ion exchange columns. The columns are eluted directly into minivials using 2 ml of 30 mM ammonium formate (pH 6.0), to which a further 2 ml or scintillation fluid is added for counting.
The inhibitory values determined for the compounds according to the invention follow from the following table A, in which the numbers of the compounds correspond to the numbers of the examples.

melting point [°C] | Compound | Inhibition of PDE4 activity [measured as −logIC50 (mol/l)] [1]
144 to 145 | CCOc1ccc(C2=NN(c3ccc(C(=O)N4CCOCC4)cc3)C(=O)C3CC=CCC23)cc1OCC (stereo not drawn) [compound 1, (cis)-4-(3,4-Diethoxyphenyl)-2-[4-(N-morpholinocarbonyl)phenyl]-4a,5,8,8a-tetrahydro-2H-phthalazin-1-one] | 7.99
 | CCOc1ccc(C2=NN(c3ccc(S(=O)(=O)N4CCOCC4)cc3)C(=O)C3CC=CCC23)cc1OCC (stereo not drawn) [compound 4, (cis)-4-(3,4-Diethoxyphenyl)-2-[4-(N-morpholinosulfonyl)phenyl]-4a,5,8,8a-tetrahydro-2H-phthalazin-1-one] | 9.22
 | COc1ccc(C2=NN(c3ccc(C(=O)N4CCOCC4)cc3)C(=O)C3CC=CCC23)c2c1OC(C)(C)C2 (stereo not drawn) [compound 2, (cis)-4-(2,3-Dihydro-2,2-dimethyl-7-methoxybenzofuran-4-yl)-2-[4-(N-morpholinocarbonyl)-phenyl]-4a,5,8,8a-tetrahydro-2H-phthalazin-1-one] | 8.77
186 to 187 | CCOc1ccc(C2=NN(c3ccc(C(=O)N4CCS(=O)(=O)CC4)cc3)C(=O)[C@H]3CC=CC[C@@H]23)cc1OCC (relative stereo) [compound 6, (cis)-4-(3,4-Diethoxyphenyl)-2-[4-(1,1-dioxothiomorpholin-4-ylcarbonyl)phenyl]-4a,5,8,8a-tetrahydro-2H-phthalazin-1-one] | 7.81
104 to 106 | CCOc1ccc(C2=NN(c3ccc(C(=O)N4CCSCC4)cc3)C(=O)[C@H]3CC=CC[C@@H]23)cc1OCC (relative stereo) [compound 3, (cis)-4-(3,4-Diethoxyphenyl)-2-[4-(1-thiomorpholin-4-ylcarbonyl)phenyl]-4a,5,8,8a-tetrahydro-2H-phthalazin-1-one] | 7.82
 | COc1ccc(C2=NN(c3ccc(S(=O)(=O)N4CCOCC4)cc3)C(=O)C3CC=CCC23)c2c1OC(C)(C)C2 (stereo not drawn) [compound 5, (cis)-4-(2,3-Dihydro-2,2-dimethyl-7-methoxybenzofuran-4-yl)-2-[4(N-morpholinosulfonyl)phenyl]-4a,5,8,8a-tetrahydro-2H-phthalazin-1-one] | 9.71
